molecular target: PARP7 (Homo sapiens (Human), UniProt Q7Z3E1); experiment: Enzymatic assay for inhibition of PARP7: TR-FRET displacement of biotinylated Probe A from the TIPARP active site; assay type: binding; details: Table A-1
Method in brief: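 Compound dose-response series were incubated with TIPARP and biotinylated Probe A, with a final 30 min step at 25 °C. TR-FRET was read at 320 nm excitation, 615/665 nm emission and 90 μs delay, using the 665/615 ratio to measure complex formation. % inhibition was fitted with a floating or fixed (1) Hill coefficient.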

PARP7, sequence (Q7Z3E1 whole entry): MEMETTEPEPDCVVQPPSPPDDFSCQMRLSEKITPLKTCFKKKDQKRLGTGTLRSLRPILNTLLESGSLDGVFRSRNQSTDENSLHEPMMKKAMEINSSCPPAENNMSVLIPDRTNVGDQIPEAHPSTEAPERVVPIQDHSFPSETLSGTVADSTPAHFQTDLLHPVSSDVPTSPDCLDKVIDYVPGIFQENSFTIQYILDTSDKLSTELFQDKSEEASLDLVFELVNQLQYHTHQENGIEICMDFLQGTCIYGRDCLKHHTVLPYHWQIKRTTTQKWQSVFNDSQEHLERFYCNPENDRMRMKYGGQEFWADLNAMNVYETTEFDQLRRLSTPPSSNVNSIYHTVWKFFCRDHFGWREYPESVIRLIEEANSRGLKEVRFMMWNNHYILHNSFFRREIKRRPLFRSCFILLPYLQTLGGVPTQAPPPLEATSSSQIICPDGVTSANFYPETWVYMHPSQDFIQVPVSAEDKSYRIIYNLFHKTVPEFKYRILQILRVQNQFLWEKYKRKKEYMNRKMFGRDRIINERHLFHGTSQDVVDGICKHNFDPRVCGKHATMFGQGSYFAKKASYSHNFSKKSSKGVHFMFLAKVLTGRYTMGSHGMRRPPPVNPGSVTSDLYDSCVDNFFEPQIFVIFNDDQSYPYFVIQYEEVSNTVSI

IC50, < 100 nM:
C[C@@H](COCCC(=O)N1CCN(c2ccc(C(F)(F)F)cn2)CC1)Oc1cn[nH]c(=O)c1C(F)(F)F [Example 584, 5-[[(2S)-1-(3-oxo-3-[4-[5-(trifluoromethyl)pyridin-2-yl]piperazin-1-yl]propoxy)propan-2-yl]oxy]-4-(trifluoromethyl)-2,3-dihydropyridazin-3-one]
CC[C@@H](COCCC(=O)N1CCN(c2ncc(C(F)(F)F)cn2)CC1)Nc1cn[nH]c(=O)c1C(F)(F)F [Example 585, 5-[[(2S)-1-(3-Oxo-3-[4-[5-(trifluoromethyl)pyrimidin-2-yl]piperazin-1-yl]propoxy)butan-2-yl]amino]-4-(trifluoromethyl)-2,3-dihydropyridazin-3-one]
CC[C@@H](COCCC(=O)N1CCN(c2ccc(Cl)cn2)CC1)Nc1cn[nH]c(=O)c1C(F)(F)F [Example 586, 5-[[(2S)-1-[3-[4-(5-Chloropyridin-2-yl)piperazin-1-yl]-3-oxopropoxy]butan-2-yl]amino]-4-(trifluoromethyl)-2,3-dihydropyridazin-3-one]
CC[C@@H](COCCC(=O)N1CCN(c2ccc(C(F)(F)F)cn2)CC1)Nc1cn[nH]c(=O)c1C(F)(F)F [Example 587, 5-[[(2S)-1-(3-Oxo-3-[4-[5-(trifluoromethyl)pyridin-2-yl]piperazin-1-yl]propoxy)butan-2-yl]amino]-4-(trifluoromethyl)-2,3-dihydropyridazin-3-one]
CC[C@@H](COCCC(=O)N1CCN(c2ncc(Cl)cn2)CC1)Nc1cn[nH]c(=O)c1C(F)(F)F [Example 588, 5-[[(2S)-1-[3-[4-(5-Chloropyrimidin-2-yl)piperazin-1-yl]-3-oxopropoxy]butan-2-yl]amino]-4-(trifluoromethyl)-2,3-dihydropyridazin-3-one]
CC[C@@H](COCCC(=O)N1CCN(c2ccc(C#N)cn2)CC1)Oc1cn[nH]c(=O)c1C(F)(F)F [Example 589, 6-(4-[3-[(2S)-2-[[6-Oxo-5-(trifluoromethyl)-1,6-dihydropyridazin-4-yl]oxy]butoxy]propanoyl]piperazin-1-yl)pyridine-3-carbonitrile]
N#Cc1cnc(N2CCN(C(=O)CCOCCOc3cn[nH]c(=O)c3C(F)(F)F)CC2)nc1 [Example 590, 2-(4-(3-(2-(6-Oxo-5-(trifluoromethyl)-1,6-dihydropyridazin-4-yloxy)ethoxy)propanoyl)piperazin-1-yl)pyrimidine-5-carbonitrile]
CC[C@@H](COc1cn[nH]c(=O)c1C(F)(F)F)OCCC(=O)N1CCN(c2ncc(Cl)cn2)CC1 [Example 591 Isomer B, 5-[(2S)-2-[3-[4-(5-Chloropyrimidin-2-yl)piperazin-1-yl]-3-oxopropoxy]butoxy]-4-(trifluoromethyl)-2,3-dihydropyridazin-3-one]
CC[C@@H](COCCC(=O)N1CCN(c2ncc(C#N)cn2)CC1)Oc1cn[nH]c(=O)c1C(F)(F)F [Example 592, 2-(4-[3-[(2S)-2-[[6-oxo-5-(trifluoromethyl)-1,6-dihydropyridazin-4-yl]oxy]butoxy]propanoyl]piperazin-1-yl)pyrimidine-5-carbonitrile]
COC[C@@H](COCCC(=O)N1CCN(c2ccc(Cl)cn2)CC1)Nc1cn[nH]c(=O)c1C(F)(F)F [Example 593, 5-[[(2S)-1-[3-[4-(5-Chloropyridin-2-yl)piperazin-1-yl]-3-oxopropoxy]-3-methoxypropan-2-yl]amino]-4-(trifluoromethyl)-2,3-dihydropyridazin-3-one]
COC[C@@H](COCCC(=O)N1CCN(c2ccc(C(F)(F)F)cn2)CC1)Nc1cn[nH]c(=O)c1C(F)(F)F [Example 594, 5-[[(2S)-1-Methoxy-3-(3-oxo-3-[4-[5-(trifluoromethyl)pyridin-2-yl]piperazin-1-yl]propoxy)propan-2-yl]amino]-4-(trifluoromethyl)-2,3-dihydropyridazin-3-one]
CC(C)[C@@H](COCCC(=O)N1CCN(c2ccc(C#N)cn2)CC1)Nc1cn[nH]c(=O)c1C(F)(F)F [Example 595, 6-(4-[3-[(2S)-3-Methyl-2-[[6-oxo-5-(trifluoromethyl)-1,6-dihydropyridazin-4-yl]amino]butoxy]propanoyl]piperazin-1-yl)pyridine-3-carbonitrile]
CO[C@H](C)[C@@H](COCCC(=O)N1CCN(c2ccc(C#N)cn2)CC1)Nc1cn[nH]c(=O)c1C(F)(F)F [Example 596, 6-(4-[3-[(2R,3R)-3-Methoxy-2-[[6-oxo-5-(trifluoromethyl)-1,6-dihydropyridazin-4-yl]amino]butoxy]propanoyl]piperazin-1-yl)pyridine-3-carbonitrile]
C[C@@H](COCCC(=O)N1CCN(c2ccc(C#N)cn2)CC1)Nc1cn[nH]c(=O)c1Cl [Example 597, 6-(4-[3-[(2S)-2-[(5-Chloro-6-oxo-1,6-dihydropyridazin-4-yl)amino]propoxy]propanoyl]piperazin-1-yl)pyridine-3-carbonitrile]
C[C@@H](COCCC(=O)N1CCN(c2ncc(Cl)cn2)CC1)Nc1cn[nH]c(=O)c1Cl [Example 598, 4-Chloro-5-[[(2S)-1-[3-[4-(5-chloropyrimidin-2-yl)piperazin-1-yl]-3-oxopropoxy]propan-2-yl]amino]-2,3-dihydropyridazin-3-one]
C[C@@H](COCCC(=O)N1CCN(c2ncc(C(F)(F)F)cn2)CC1)Nc1cn[nH]c(=O)c1Cl [Example 599, (S)-4-Chloro-5-(1-(3-oxo-3-(4-(5-(trifluoromethyl)pyrimidin-2-yl)piperazin-1-yl)propoxy)propan-2-ylamino)pyridazin-3(2H)-one]
C[C@@H](COCCC(=O)N1CCN(c2ccc(C#N)cn2)CC1)Nc1cn[nH]c(=O)c1Br [Example 600, 6-(4-[3-[(2S)-2-[(5-bromo-6-oxo-1,6-dihydropyridazin-4-yl)amino]propoxy]propanoyl]piperazin-1-yl)pyridine-3-carbonitrile]
C[C@@H](COCCC(=O)N1CCN(c2ncc(C(F)(F)F)cn2)CC1)Nc1cn[nH]c(=O)c1Br [Example 601, 4-Bromo-5-[[(2S)-1-(3-oxo-3-[4-[5-(trifluoromethyl)pyrimidin-2-yl]piperazin-1-yl]propoxy)propan-2-yl]amino]-2,3-dihydropyridazin-3-one]
C[C@@H](COCCC(=O)N1CCN(c2ncc(Cl)cn2)CC1)Nc1cn[nH]c(=O)c1Br [Example 602]
O=C(CCOC[C@H](CO)Nc1cn[nH]c(=O)c1C(F)(F)F)N1CCN(c2ncc(C(F)(F)F)cn2)CC1 [Example 603, 5-[[(2S)-1-Hydroxy-3-(3-oxo-3-[4-[5-(trifluoromethyl)pyrimidin-2-yl]piperazin-1-yl]propoxy)propan-2-yl]amino]-4-(trifluoromethyl)-2,3-dihydropyridazin-3-one]
O=C(CCOC[C@H](CO)Nc1cn[nH]c(=O)c1C(F)(F)F)N1CCN(c2ccc(C(F)(F)F)cn2)CC1 [Example 604, 5-[[(2S)-1-Hydroxy-3-(3-oxo-3-[4-[5-(trifluoromethyl)pyridin-2-yl]piperazin-1-yl]propoxy)propan-2-yl]amino]-4-(trifluoromethyl)-2,3-dihydropyridazin-3-one]
N#Cc1ccc(N2CCN(C(=O)CCOC[C@@H](Nc3cn[nH]c(=O)c3C(F)(F)F)C3CC3)CC2)nc1 [Example 605, (S)-6-[4-[3-[2-Cyclopropyl-2-[[6-oxo-5-(trifluoromethyl)-1,6-dihydropyridazin-4-yl]amino]ethoxy]propanoyl]piperazin-1-yl]nicotinonitrile]
O=C(CCOC[C@@H](Nc1cn[nH]c(=O)c1C(F)(F)F)C1CC1)N1CCN(c2ncc(C(F)(F)F)cn2)CC1 [Example 606, (S)-5-[(1-Cyclopropyl-2-[3-oxo-3-[4-[5-(trifluoromethyl)pyrimidin-2-yl)piperazin-1-yl]propoxy]-ethyl]amino]-4-(trifluoromethyl)pyridazin-3(2H)-one]
CO[C@H](C)[C@@H](COCCC(=O)N1CCN(c2ncc(C(F)(F)F)cn2)CC1)Nc1cn[nH]c(=O)c1C(F)(F)F [Example 607, 5-[[(2R,3R)-3-Methoxy-1-(3-oxo-3-[4-[5-(trifluoromethyl)pyrimidin-2-yl]piperazin-1-yl]propoxy)butan-2-yl]amino]-4-(trifluoromethyl)-2,3-dihydropyridazin-3-one]
C[C@@H](COCCC(=O)N1CCN(c2ncc(C(F)(F)F)cn2)CC1)Oc1cn[nH]c(=O)c1Br [Example 608, 4-Bromo-5-[[(2S)-1-(3-oxo-3-[4-[5-(trifluoromethyl)pyrimidin-2-yl]piperazin-1-yl]propoxy)propan-2-yl]oxy]-2,3-dihydropyridazin-3-one]
C[C@@H](COCCC(=O)N1CCN(c2ncc(Cl)cn2)CC1)Oc1cn[nH]c(=O)c1Br [Example 609, 4-Bromo-5-[[(2S)-1-[3-[4-(5-chloropyrimidin-2-yl)piperazin-1-yl]-3-oxopropoxy]propan-2-yl]oxy]-2,3-dihydropyridazin-3-one]
C[C@@H](O)[C@@H](COCCC(=O)N1CCN(c2ncc(C(F)(F)F)cn2)CC1)Nc1cn[nH]c(=O)c1C(F)(F)F [Example 610, 5-[[(2R,3R)-3-Hydroxy-1-(3-oxo-3-[4-[5-(trifluoromethyl)pyrimidin-2-yl]piperazin-1-yl]propoxy)butan-2-yl]amino]-4-(trifluoromethyl)-2,3-dihydropyridazin-3-one]
